Measurements: BindingDB's records for doi:10.1016/j.bmcl.2009.01.012 (Pfizer, 2009)

Test: Antagonist activity at human recombinant CCR5 expressed in human HeLa-P4 cells assessed as inhibition of human HeLa-P4 cells binding to HIV1 gp160 expressing CHO cells by cell-cell fusion assay

| IC50 [nM] | SMILES |
| --- | --- |
| 56 | Cc1ccnc(C)c1C(=O)NCCN1CCCC(CC(c2ccccc2)c2ccccc2)C1 (racemic) [rac-N-(2-(3-(2,2-diphenylethyl)piperidin-1-yl)ethyl)-2,4-dimethylnicotinamide] |
| 102 | Cc1ccnc(C)c1C(=O)N1CC(N(C)C2CCN(C(c3ccccc3)c3ccccc3)CC2)C1 [(3-((1-benzhydrylpiperidin-4-yl)(methyl)amino)azetidin-1-yl)(2,4-dimethylpyridin-3-yl)methanone] |
| 41 | Cc1ccnc(C)c1C(=O)N1CCC(N2C3CCC2CN(C(c2ccccc2)c2ccccc2)C3)CC1 [(4-(3-benzhydryl-3,8-diazabicyclo[3.2.1]octan-8-yl)piperidin-1-yl)(2,4-dimethylpyridin-3-yl)methanone] |
| 313 | Cc1ccnc(C)c1C(=O)N1CCC(N2CC3CCC(C2)N3C(c2ccccc2)c2ccccc2)CC1 [(4-(8-benzhydryl-3,8-diazabicyclo[3.2.1]octan-3-yl)piperidin-1-yl)(2,4-dimethylpyridin-3-yl)methanone] |
| 24 | Cc1ccnc(C)c1C(=O)N1CCC(N(C)C2CN(C(c3ccccc3)c3ccccc3)C2)CC1 [(4-((1-benzhydrylazetidin-3-yl)(methyl)amino)piperidin-1-yl)(2,4-dimethylpyridin-3-yl)methanone] |
| 1 | Cc1cccc(C)c1C(=O)N1CCC(N2CC[C@@H](N(Cc3ccccc3)C(=O)C3CC3)C2)CC1 [(R)-N-benzyl-N-(1-(1-(2,6-dimethylbenzoyl)piperidin-4-yl)pyrrolidin-3-yl)cyclopropanecarboxamide] |
| 1230 | Cc1cccc(C)c1C(=O)N1CCC(N2CC[C@H](N(Cc3ccccc3)C(=O)C3CC3)C2)CC1 [(S)-N-benzyl-N-(1-(1-(2,6-dimethylbenzoyl)piperidin-4-yl)pyrrolidin-3-yl)cyclopropanecarboxamide] |
| 2490 | CC(=O)NC(c1ccccc1)C1CN(C2CCN(C(=O)c3c(C)cccc3C)CC2)C1 (stereo not drawn) [N-((1-(1-(2,6-dimethylbenzoyl)piperidin-4-yl)azetidin-3-yl)(phenyl)methyl)acetamide] |
| 145 | Cc1cccc(C)c1C(=O)N1CCC(N2CCC(CNC(=O)C3CC3)(Cc3ccccc3)CC2)CC1 [N-((4-benzyl-1'-(2,6-dimethylbenzoyl)-1,4'-bipiperidin-4-yl)methyl)cyclopropanecarboxamide] |
| 3 | Cc1cccc(C)c1C(=O)N1CCC(N2CCC(N(Cc3ccccc3)C(=O)C3CCC3)CC2)CC1 [N-benzyl-N-(1'-(2,6-dimethylbenzoyl)-1,4'-bipiperidin-4-yl)cyclobutanecarboxamide] |
| 0.5 | Cc1cccc(C)c1C(=O)N1CCC(C)(N2CCC(N(Cc3ccccc3)C(=O)C3CC3)CC2)CC1 [N-benzyl-N-(1'-(2,6-dimethylbenzoyl)-4'-methyl-1,4'-bipiperidin-4-yl)cyclopropanecarboxamide] |
| 5800 | Cc1cccc(C)c1C(=O)N1CCC(N2CC(N(Cc3ccccc3)C(=O)C3CC3)C2)CC1 [N-benzyl-N-(1-(1-(2,6-dimethylbenzoyl)piperidin-4-yl)azetidin-3-yl)cyclopropanecarboxamide] |
| 1 | Cc1cccc(C)c1C(=O)N1[C@@H]2CC[C@H]1C[C@H](N1CC[C@@H](N(Cc3ccccc3)C(=O)C3CC3)C1)C2 [exo-N-benzyl-N-((R)-1-(8-(2,6-dimethylbenzoyl)-8-azabicyclo[3.2.1]octan-3-yl)pyrrolidin-3-yl)cyclopropanecarboxamide] |
